Experimental data reported in US10874108B2, “Anti-microbial compositions” (5D HEALTH PROTECTION GROUP LTD, priority 2016, dated 2020).

Assays:
[1] = Cumulative elution from carbopol hydrogel; assay type: physicochemical
Experimental: Hydrogels were loaded with EDTA compounds and investigated for elution of the silver, zinc and EDTA. Carbopol ETD 2020 was obtained from Lubrizol Advanced Materials, Inc. USA. 1.2 g carbopol power was dissolved in 42.36 g deionized water for 1 hour to fully hydrate. Then 8.4 ml of the EDTA complexes and 4.8 g glycerine were added into carbopol solution with vigorous stirring; finally, 3 g 50% triethanolamine was dropped into the suspension to obtain final products: carbopol hydrogel with EDTA complexes.
The silver, zinc and EDTA increased in saline day by day, which indicated the release of silver, zinc and EDTA can be controlled from the hydrogel.

[2] = Elution from loaded gauze; assay type: physicochemical
Experimental: The gauzes were weighed before soaking, after soaking and after drying for 24 hours. To assess the elution profile of the EDTA complexes from gauze, the loaded gauzes were immersed in water and saline (Table 6 and Table 7). […] After day 2, the eluting of silver, zinc and EDTA decreased more than 5 times compared to day 1.

[3] = tested on: cells; experiment: Direct cytotoxicity, Neutral Red Uptake assay

SMILES: O=C([O-])CN(CCN(CC(=O)[O-])CC(=O)[O-])CC(=O)[O-].[Ag+].[Ag+].[Zn+2] [EDTA compound 4, sample 2]
- Elution in saline (ppm) EDTA ([1]; day 1): 16.64 ± 1.41 ppm
- Elution in saline (ppm) Silver ([1]; day 1): 21.10 ± 1.80 ppm
- Elution in saline (ppm) Zinc ([1]; day 1): 15.30 ± 2.12 ppm
- Elution in water (ppm) EDTA ([1]; day 1): 20.80 ± 3.07 ppm
- Elution in water (ppm) Silver ([1]; day 1): 28.41 ± 3.48 ppm
- Elution in water (ppm) Zinc ([1]; day 1): 20.77 ± 3.25 ppm
- Elution in saline (ppm) EDTA ([1]; day 2): 17.31 ± 1.43 ppm
- Elution in saline (ppm) Silver ([1]; day 2): 26.06 ± 2.03 ppm
- Elution in saline (ppm) Zinc ([1]; day 2): 20.51 ± 3.94 ppm
- Elution in water (ppm) EDTA ([1]; day 2): 22.50 ± 2.86 ppm
- Elution in water (ppm) Silver ([1]; day 2): 29.03 ± 4.71 ppm
- Elution in water (ppm) Zinc ([1]; day 2): 23.57 ± 2.12 ppm
- Elution in saline (ppm) EDTA ([1]; day 3): 21.81 ± 0.42 ppm
- Elution in saline (ppm) Silver ([1]; day 3): 31.27 ± 0.96 ppm
- Elution in saline (ppm) Zinc ([1]; day 3): 23.98 ± 1.92 ppm
- Elution in water (ppm) EDTA ([1]; day 3): 24.64 ± 1.57 ppm
- Elution in water (ppm) Silver ([1]; day 3): 29.12 ± 2.73 ppm
- Elution in water (ppm) Zinc ([1]; day 3): 22.53 ± 7.30 ppm
- Elution in saline (ppm) EDTA ([1]; day 4): 22.70 ± 1.70 ppm
- Elution in saline (ppm) Silver ([1]; day 4): 32.50 ± 0.96 ppm
- Elution in saline (ppm) Zinc ([1]; day 4): 26.11 ± 1.08 ppm
- Elution in water (ppm) EDTA ([1]; day 4): 24.30 ± 1.51 ppm
- Elution in water (ppm) Silver ([1]; day 4): 29.89 ± 3.51 ppm
- Elution in water (ppm) Zinc ([1]; day 4): 22.23 ± 1.97 ppm
- Elution in saline (ppm) EDTA ([1]; day 5): 25.02 ± 0.96 ppm
- Elution in saline (ppm) Silver ([1]; day 5): 37.54 ± 0.61 ppm
- Elution in saline (ppm) Zinc ([1]; day 5): 27.28 ± 3.01 ppm
- Elution in water (ppm) EDTA ([1]; day 5): 23.03 ± 3.46 ppm
- Elution in water (ppm) Silver ([1]; day 5): 30.64 ± 5.25 ppm
- Elution in water (ppm) Zinc ([1]; day 5): 23.54 ± 1.23 ppm
- Elution in saline (ppm) EDTA ([2]; day 1): 17.31 ± 1.77 ppm
- Elution in saline (ppm) Silver ([2]; day 1): 27.32 ± 3.84 ppm
- Elution in saline (ppm) Zinc ([2]; day 1): 22.71 ± 1.75 ppm
- Elution in water (ppm) EDTA ([2]; day 1): 13.23 ± 1.28 ppm
- Elution in water (ppm) Silver ([2]; day 1): 23.32 ± 3.95 ppm
- Elution in water (ppm) Zinc ([2]; day 1): 17.08 ± 3.09 ppm
- Elution in saline (ppm) EDTA ([2]; day 2): 6.84 ± 2.67 ppm
- Elution in saline (ppm) Silver ([2]; day 2): 8.36 ± 2.37 ppm
- Elution in saline (ppm) Zinc ([2]; day 2): 7.67 ± 2.03 ppm
- Elution in water (ppm) EDTA ([2]; day 2): 8.74 ± 2.01 ppm
- Elution in water (ppm) Silver ([2]; day 2): 16.28 ± 3.75 ppm
- Elution in water (ppm) Zinc ([2]; day 2): 12.78 ± 1.55 ppm
- Elution in saline (ppm) EDTA ([2]; day 3): 1.75 ± 0.31 ppm
- Elution in saline (ppm) Silver ([2]; day 3): 2.55 ± 0.94 ppm
- Elution in saline (ppm) Zinc ([2]; day 3): 3.70 ± 0.20 ppm
- Elution in water (ppm) EDTA ([2]; day 3): 1.55 ± 0.56 ppm
- Elution in water (ppm) Silver ([2]; day 3): 3.82 ± 1.39 ppm
- Elution in water (ppm) Zinc ([2]; day 3): 4.21 ± 1.19 ppm
- Elution in saline (ppm) EDTA ([2]; day 4): 1.11 ± 0.61 ppm
- Elution in saline (ppm) Silver ([2]; day 4): 1.46 ± 0.99 ppm
- Elution in saline (ppm) Zinc ([2]; day 4): 3.48 ± 0.68 ppm
- Elution in water (ppm) EDTA ([2]; day 4): 1.13 ± 0.57 ppm
- Elution in water (ppm) Silver ([2]; day 4): 1.42 ± 0.40 ppm
- Elution in water (ppm) Zinc ([2]; day 4): 3.37 ± 0.26 ppm
- Elution in saline (ppm) EDTA ([2]; day 5): 0.54 ± 0.11 ppm
- Elution in saline (ppm) Silver ([2]; day 5): 1.57 ± 1.43 ppm
- Elution in saline (ppm) Zinc ([2]; day 5): 2.95 ± 1.46 ppm
- Elution in water (ppm) EDTA ([2]; day 5): 0.79 ± 0.19 ppm
- Elution in water (ppm) Silver ([2]; day 5): 0.59 ± 0.35 ppm
- Elution in water (ppm) Zinc ([2]; day 5): 2.49 ± 0.88 ppm

SMILES: CCCCCCCCCCCCOS(=O)(=O)[O-].[Na+] [SDS, sodium dodecyl sulphate, reference compound]
- Interpretation ([3]; 0.05 mg/ml): Cytotoxic (if the percentage viability is less than 70% of the untreated control, then the substance is considered cytotoxic)
- Percentage of Control/Percentage Viability (%) ([3]; 0.05 mg/ml): 6.57 ± 0%
- Interpretation ([3]; 0.1 mg/ml): Cytotoxic (if the percentage viability is less than 70% of the untreated control, then the substance is considered cytotoxic)
- Percentage of Control/Percentage Viability (%) ([3]; 0.1 mg/ml): 6.57 ± 0%
- Interpretation ([3]; 0.15 mg/ml): Cytotoxic (if the percentage viability is less than 70% of the untreated control, then the substance is considered cytotoxic)
- Percentage of Control/Percentage Viability (%) ([3]; 0.15 mg/ml): 6.57 ± 0%
- Interpretation ([3]; 0.2 mg/ml): Cytotoxic (if the percentage viability is less than 70% of the untreated control, then the substance is considered cytotoxic)
- Percentage of Control/Percentage Viability (%) ([3]; 0.2 mg/ml): 6.57 ± 0%
